Data taken from US20130123201A1, “MODULATION OF CYTOKINE-INDUCED CHRONIC INFLAMMATORY RESPONSES” (UNIVERSITY OF MANITOBA, priority 2010, published 2013).
Entries after “also recorded” stand apart in the source; their conditions may differ.

Assays:
[1] = system: Human fibroblast-like synovial (FLS) cells; test: ELISA of chemokine production in FLS tissue culture supernatants; assay type: cell-based
Protocol: ELISA immunoassay: Tissue culture supernatants were centrifuged at 1500× g for 5-7 min to obtain cell-free samples and the aliquots were stored at −20° C. until further use. Production of chemokine Gro-α was monitored in the tissue culture supernatants by ELISA employing human Gro-α DuoSet (R&D Systems Inc.) as per the manufacturer's instructions. Production of cytokine TNF-α was monitored in the tissue culture supernatants using specific antibody pairs from eBioscience, Inc., and production of IL-8 was monitored using specific antibody pairs from R&D Systems, Inc., as per the manufacturer's instructions. The concentration of the cytokines or chemokines in the tissue culture supernatants was evaluated by establishing a standard curve with serial dilutions of the recombinant human cytokines or chemokines as required.
ELISA immunoassay: Tissue culture supernatants were centrifuged at 1500× g for 5-7 min to obtain cell-free samples and the aliquots were stored at −20° C. until further use. Production of chemokine Gro-α was monitored in the tissue culture supernatants by ELISA employing human Gro-α DuoSet (R&D Systems Inc.) per the manufacturer's instructions. […] The concentrations of the cytokines or chemokines in the tissue culture supernatants were evaluated by establishing a standard curve with serial dilutions of the recombinant human cytokines or chemokines as required.

phospho-p300 (Ser1834) = test: Immunoblot with phospho-p300 (Ser1834) antibody; assay type: cell-based, human; conditions: within 15 min, compared to un-stimulated cells
Protocol: Immunoblots: Cell lysates were prepared in lysis buffer containing 20 mM Tris-HCl pH 7.5, 150 mM NaCl, 1 mM EDTA, 1 mM EGTA, 1 mM sodium fluoride, 1 mM sodium orthovanadate, 2.5 mM sodium pyrophosphate, protease inhibitor cocktail (Sigma-Aldrich) and 1% (v/v) Triton X-100. The lysates were electrophoretically resolved on a 4-12% NuPAGE® Bis-Tris gels (Invitrogen Corporation, Burlington, ON, Canda), followed by transfer to nitrocellulose membranes (Millipore, Canada). The membranes were subsequently probed with either phospho-p300 (Ser1834) polyclonal antibody, monoclonal antibody against phospho-DAPK (Ser308) or monoclonal antibody to glyceraldehyde-3-phosphate dehydrogenase (GAPDH) in TBST (20 mM Tris pH 7.5, 150 mM NaCl, 0.1% Tween 20) containing 5% skimmed milk powder. Affinity purified HRP-linked horse anti-mouse or goat anti-rabbit antibodies were used for detection as required. The membranes were development with Amersham ECL detection system (GE Healthcare, Baie d'Urfe QC, Canada) according to the manufacturer's instructions.
Immunoblots: Cell lysates were prepared in lysis buffer containing 20 mM Tris-HCl pH 7.5, 150 mM NaCl, 1 mM EDTA, 1 mM EGTA, 1 mM sodium fluoride, 1 mM sodium orthovanadate, 2.5 mM sodium pyrophosphate, protease inhibitor cocktail (Sigma-Aldrich Canada Inc.) and 1% (v/v) Triton X-100. […]

[2] = system: NF-κB subunits p50 and p65; test: Translocation of NF-κB subunits p50 and p65 (nuclear extract immunoblots); assay type: cell-based, human; conditions: 20 ng/mL, 30 mins
Protocol: Translocation of NF-κB subunits p50 and p65: Nuclear extracts were prepared employing NE-PER® extraction reagents (Thermo Fisher Scientific, Toronto, ON, Canada) as per the manufacturer's instructions. In order to monitor direct NF-κB activation, equivalent nuclear extracts (5-8 μg) were resolved on 4-12% NuPAGE® Bis-Tris gels (Invitrogen Canada Inc.) and transferred to nitrocellulose membranes. The membranes were blocked with TBST containing 3% fish skin gelatin (Sigma-Aldrich), and probed with antibodies specific for either NE-κB subunit p50 or p65, in TBST containing 1% fish gelatin. The membranes were also probed with antibody to human histone protein HADC-1 to assess the equivalent protein loading. […]
The presence of common targets in macrophages was supported by the observation that both IL-32 and IL-17 induced similar level of IL-23 mRNA expression (FIG. 8A) and chemokine IL-8 production in human macrophage-like THP-1 cells (FIG. 7C). […] Therefore to further evaluate similarity of induced downstream response in synovial fibroblasts, this study analyzed the direct activation of transcription factor NF-κB. […] We also monitored the activity of NF-κB using a luminescence assay in-vitro employing rabbit synovial fibroblast cell line (HIG-82) in the presence of IL-32 and IL-17. The activation of NF-κB was monitored after 4 and 6 hr of treatment. […]

“IL-17: Recombinant human cytokine IL-17A/F from eBioscience, used as stimulant” was tested, and the “Chemokine Gro-α production” value [1] was “robust induction; also recorded: robust Gro-α production”, the “Effect on TNF-α-induced chemokine Gro-α production” value ([1]; TNF-α 10 ng/mL plus cytokine 20 ng/mL, 24 hr) was “synergistically enhanced” and the “Phosphorylation of p300 (Ser1834) by immunoblot” value (phospho-p300 (Ser1834)) was “increased phosphorylation”. For the same substance, the “Nuclear translocation of NF-κB p50” value ([2]; FLS cells and macrophage-like THP-1 cells) was “mediated nuclear translocation” and the “Nuclear translocation of NF-κB subunit p65” value ([2]; FLS cells and macrophages) was “mediated”.
